# Laboratory results reported in US20110280940A1, “Di-Vanilloyl And Tri-Vanilloyl Derivatives For Use In Anti-Cancer Therapy” (priority 2008, published 2011).
# Key:
# [1] = test system: U373 glioblastoma cells; assay: MTT colorimetric assay, overall cell growth, U373; assay type: cell-based, human; conditions: Homo sapiens, U373 MG, 72 hours of incubation, read-out: In Vitro IC50 Growth Inhibitory Values, U373
# Text: (§1) The amount of formazan obtained at the end of the experiment, measured by means of a spectrophotometer, is directly proportional to the number of living cells. Optical density determination thus enabled a quantitative measurement of the effect of the investigated compounds as compared to the control condition (untreated cells) and/or to other reference compounds. Eleven human cancer cell lines and one mouse melanoma cell-line (B16F10) described in Table 2 were used in the following MTT tests. These cancer cell lines cover seven histological cancer types including prostate (PC3), glioma (Hs683, T98G, U373, melanoma (VM21, VM28), non-small-cell-lung (A549), breast (MCF-7), colon (LoVo) and oesophageal (OE21, OE33) cancers. […] Each cell line was seeded in its appropriate culture medium. The detailed experimental procedure was the following: after a 24-hour period of incubation at 37° C., the culture medium was replaced by 100 μl of fresh medium in which the tested compound was previously dissolved, at the following molar concentrations: 10^-8 […] and 10^-4 M. Each experiment was performed in sestuplicates (6 times). After 72 hours of incubation at 37° C. with (experimental conditions) or without (control condition) the compound to be tested, the medium was replaced by 100 μl MTT dissolved in RPMI (1640 without phenol red) at a concentration of 0.5 or 1 mg/ml. The micro-wells were subsequently incubated during 3 hours and a half at 37° C. and centrifuged at 1300 rpm during 10 minutes. MTT was removed and formazan crystals formed were dissolved in 100 μl DMSO. The micro-wells were shaken for 5 minutes and read on a spectrophotometer at wavelengths of 570 nm (maximal formazan absorbance). For each experimental condition, the mean optical density was calculated, allowing the determination of the percentage of remaining living cells in comparison to the control. […] The origin of all the cell lines we used, along with their biological characteristics, and the validation procedures of the MTT colorimetric assay as employed here are fully detailed in Van Quaquebeke et al., 2005, J Med Chem 48:849-856; […]
# [2] = test system: Hs683 glioma cells; assay: MTT colorimetric assay, overall cell growth, Hs683; assay type: cell-based, human; conditions: Homo sapiens, Hs 683, 72 hours of incubation, read-out: In Vitro IC50 Growth Inhibitory Values, Hs683
# Text: as §1
# [3] = test system: A549 non-small-cell-lung cancer cells; assay: MTT colorimetric assay, overall cell growth, A549; assay type: cell-based, human; conditions: Homo sapiens, A549, 72 hours of incubation, read-out: In Vitro IC50 Growth Inhibitory Values, A549
# Text: as §1
# [4] = test system: PC-3 prostate cancer cells; assay: MTT colorimetric assay, overall cell growth, PC-3; assay type: cell-based, human; conditions: Homo sapiens, 72 hours of incubation, read-out: In Vitro IC50 Growth Inhibitory Values, PC-3
# Text: as §1
# [5] = test system: MCF-7 breast cancer cells; assay: MTT colorimetric assay, overall cell growth, MCF-7; assay type: cell-based, human; conditions: Homo sapiens, MCF7, 72 hours of incubation, read-out: In Vitro IC50 Growth Inhibitory Values, MCF-7
# Text: as §1
# [6] = test system: LoVo colon cancer cells; assay: MTT colorimetric assay, overall cell growth, LoVo; assay type: cell-based, human; conditions: Homo sapiens, LoVo, 72 hours of incubation, read-out: In Vitro IC50 Growth Inhibitory Values, LoVo
# Text: as §1
# [7] = test system: T98G glioma cells; assay: MTT colorimetric assay, overall cell growth, T98G; assay type: cell-based, human; conditions: Homo sapiens, T98G, 72 hours of incubation, read-out: In Vitro IC50 Growth Inhibitory Values, T98G
# Text: as §1
# [8] = test system: OE21 oesophageal cancer cells; assay: MTT colorimetric assay, overall cell growth, OE21; assay type: cell-based, human; conditions: Homo sapiens, OE21, 72 hours of incubation, read-out: In Vitro IC50 Growth Inhibitory Values, OE21
# Text: as §1
# [9] = test system: OE33 oesophageal cancer cells; assay: MTT colorimetric assay, overall cell growth, OE33; assay type: cell-based, human; conditions: Homo sapiens, OE33, 72 hours of incubation, read-out: In Vitro IC50 Growth Inhibitory Values, OE33
# Text: as §1
# [10] = test system: VM21 melanoma cells; assay: MTT colorimetric assay, overall cell growth, VM21; assay type: cell-based, human; conditions: Homo sapiens; MTT, 72 hours of incubation; read-out: In Vitro IC50 Growth Inhibitory Values, VM21
# Text: as §1
# [11] = test system: VM48 melanoma cells; assay: MTT colorimetric assay, overall cell growth, VM48; assay type: cell-based, human; conditions: Homo sapiens; MTT, 72 hours of incubation; read-out: In Vitro IC50 Growth Inhibitory Values, VM48
# [12] = test system: Eleven human cancer cell lines; assay: MTT colorimetric assay, across the eleven human cancer cell lines; assay type: cell-based; conditions: mean ± SEM over the 11 human cancer cell lines, MTT, 72 hours; read-out: In Vitro IC50 Growth Inhibitory Values, m ± SEM
# Text: as §1
# [13] = test system: B16F10 melanoma cell-line; assay: MTT colorimetric assay, overall cell growth, B16F10; assay type: cell-based, mouse; conditions: Mus musculus, B16-F10, 72 hours of incubation, read-out: In Vitro IC50 Growth Inhibitory Values, B16F10
# Text: as §1
# [14] = test system: U373-MG glioma cell line; assay: Cellular imaging (quantitative videomicroscopy), global growth ratio, U373; assay type: cell-based; conditions: Homo sapiens, 50 μM, 72 h, read-out: Global Grow Ratio Treated/Ct (GGR T/Ct) determined by Video Quantitative microscopy, U373
# Text: (§2) As the MTT test is based on the mitochondria functions, we also investigated the effects of the di- and tri-vanilloyl derivatives according to the invention on cell proliferation, migration and morphology by means of a cellular imaging approach (Debeir et al., Cytometry 60:29-40, 2004; Debeir et al., IEEE Trans Med Imaging 24:697-711, 2005) either in the human U373-MG glioma cell line, which is apoptosis-resistant but autophagy-sensitive (Lefranc F et al., Neurosurgery 2008) and in the human A549 non-small-cell-lung cancer cell line, which is apoptosis-resistant and autophagy-resistant (Mijatovic T et al., Neoplasia 2006, May; 8(5):402-12).
# (§3) Investigations have also been performed in human normal fibroblasts (WS1 and WI38—see Tables 4 and 5). Cellular imaging relied on the use of computer-assisted phase-contrast microscopy making possible to film the behaviour of living cells in culture dishes for several days.
# (§4) Cells were seeded in a 25-cm^2 flask at a low density, treated or not with the vanilloyl-esters invention (at a concentration of 50 μM) and filmed thereafter for a period of 72 h. The experiment was conducted in quadruplicates (in duplicates for DLT-95 compounds).
# (§5) The behaviour of the cells, in terms of morphology, growth and death were thus investigated. The effect on the overall growth was measured by counting the number of cells on the first (0 h) and the last image (72 h) of each film. The global growth ratio (GGR) was then deduced by dividing the number of cells on the last image by the number of cells on the first image. The ratio GGRtreated cells/GGRcontrol cells, was further calculated thereby obtaining a value that describes the effect of compounds of the present invention on the overall cell growth. The methodology is fully described and validated in Debeir et al., 2008, Exp Cell Res 314:2985-2998 and Mathieu et al., 2009, J Cell Mol Med, Feb. 20, 2009.
# (§6) Illustrative pictures (time=0 h and 72 h) of glioblastoma and normal fibroblast cell line left untreated or treated with poly-vanillic compounds according to the invention (50 μM) are provided in FIG. 1 (U373 glioblastoma) and FIG. 2 (normal fibroblasts). The GGR parameter analyses confirmed the marked impairment of cell growth in both cancer cell lines of the poly-vanillic compounds according to the invention (Table 5).
# [15] = test system: A549 non-small-cell-lung cancer cell line; assay: Cellular imaging (quantitative videomicroscopy), global growth ratio, A549; assay type: cell-based; conditions: Homo sapiens, 72 h, read-out: Global Grow Ratio Treated/Ct (GGR T/Ct) determined by Video Quantitative microscopy, A549
# Text: as §2, §3, §4, §5, §6
# [16] = test system: cancer cells versus normal fibroblasts; assay: Anti-proliferative, anti-migratory and anti-kinase effects, cancer cells versus normal fibroblasts; assay type: cell-based, human; conditions: anti-proliferative
# Text: The compounds of the invention were subsequently evaluated for their 1) anti-proliferative effect (by means of the colorimetric MTT assay), 2) pro-autophagic and pro-apoptotic effect (by means of flow cytometry analyses), and 3) anti-migratory effect (by means of quantitative videomicroscopy), in the following human cancer cell-lines: a) U373, T98G and Hs683 glioblastoma cells, b) VM21 and VM48 melanoma cells, c) PC-3 prostate cancer cells, d) MCF-7 breast cancer cells, e) LoVo colon cancer cells, f) OE21 oesophageal cancer cells, and g) A549 NSCLC cancer cells, as well as in human WS1 and WI38 normal fibroblasts (i.e. non-cancer cells).
# The best current hits, DLT12 and DLT4, display anti-proliferative, anti-migratory effects and anti-kinase effects which are ˜10 times more pronounced in cancer cells than in normal fibroblasts. […] FIG. 1 illustrates the data obtained with respect to the human U373 glioblastoma model, while FIG. 2 illustrates the data obtained in human normal fibroblasts. […] DLT-95 and its derivatives DLT-95-F and DLT-95-Cl were also shown to have a significant effect on the proliferation 7 different human cancer cell-lines.
IC50 [1] [µM],IC50 [2] [µM],IC50 [3] [µM],IC50 [4] [µM],IC50 [5] [µM],IC50 [6] [µM],IC50 [7] [µM],IC50 [8] [µM],IC50 [9] [µM],IC50 [10] [µM],IC50 [11] [µM],IC50 [12] [µM],IC50 [13] [µM],Compound,activity at 50 µM [14] [%],activity at 50 µM [15] [%],effects more pronounced in cancer cells than in normal fibroblasts [16] [times]
20,57,43,59,47,44,70,41,66,35,36,47 ± 4,49,"COc1cc(C(=O)OC2CCCC[C@@H]2OC(=O)c2ccc(O)c(OC)c2)ccc1O (stereo partly drawn) [DLT7, S,S-trans-cyclohexane-1,2-diyl bis-(4-hydroxy-3-methoxybenzoate)]",20,20,–
–,–,–,–,–,–,–,–,–,32,38,46,–,"COc1cc(C(=O)OCCCCCCCOC(=O)c2ccc(O)c(OC)c2)ccc1O [DLT12, Heptane-1,7-diyl bis-(4-hydroxy-3-methoxybenzoate)]",20,20,~10
43,49,–,35,–,–,76,–,–,44,57,48 ± 3,–,"COc1cc(C(=O)O[C@H]2CCCC[C@H]2OC(=O)c2ccc(O)c(OC)c2)ccc1O [DLT9, cis-cyclohexane-1,2-diyl bis-(4-hydroxy-3-methoxybenzoate)]",20,20,–
53,> 100,76,77,75,64,> 100,45,77,77,72,> 100,59,"COc1cc(C(=O)O[C@@H]2CCCC[C@H]2OC(=O)c2ccc(O)c(OC)c2)ccc1O [DLT8, R,R-trans-cyclohexane-1,2-diyl bis-(4-hydroxy-3-methoxybenzoate)]",50,50,–
